# In patent publication US20130303509A1, “NAMPT INHIBITORS” (AbbVie Inc., priority 2012, published 2013):
# Test system: PC3 cells
# Experiment: NAMPT Cell Proliferation Assay
# Format: cell-based
# Details: Homo sapiens, PC-3, 120 h, 5 days incubation, cell viability by Cell Titer Glo
# Summary of the method: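 Five-day CellTiter-Glo viability readout in PC3 cells grown in RPMI/10% heat-inactivated FBS. Compounds added after overnight attachment as a 10-fold dilution series, […]. Percent inhibition fitted to sigmoidal dose-response to derive IC50.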
row,Compound,IC50 [nM]
1,"O=C(Nc1ccc(C2CCN(C(=O)c3cc(F)cc(F)c3)CC2)cc1)C1CN(c2cccnn2)C1 [Example 400, N-{4-[1-(3,5-difluorobenzoyl)piperidin-4-yl]phenyl}-1-(pyridazin-3-yl)azetidine-3-carboxamide]",6.8
2,"O=C(Nc1ccc(C2CCN(C(=O)c3ccc(Cl)cc3)CC2)cc1)C1CN(c2cccnn2)C1 [Example 401, N-{4-[1-(4-chlorobenzoyl)piperidin-4-yl]phenyl}-1-(pyridazin-3-yl)azetidine-3-carboxamide]",8.54
3,"CC(C)(C)C(=O)N1CCC(c2ccc(NC(=O)C3CN(c4cccnn4)C3)cc2)CC1 [Example 402, N-{4-[1-(2,2-dimethylpropanoyl)piperidin-4-yl]phenyl}-1-(pyridazin-3-yl)azetidine-3-carboxamide]",1.68
4,"O=C(Nc1ccc(C2CCN(C(=O)Cc3cccc(C(F)(F)F)c3)CC2)cc1)C1CN(c2cccnn2)C1 [Example 403, 1-(pyridazin-3-yl)-N-[4-(1-{[3-(trifluoromethyl)phenyl]acetyl}piperidin-4-yl)phenyl]azetidine-3-carboxamide]",4.1
5,"O=C(Nc1ccc(C2CCN(C(=O)Cc3cccc(Cl)c3)CC2)cc1)C1CN(c2cccnn2)C1 [Example 404, N-(4-{1-[(3-chlorophenyl)acetyl]piperidin-4-yl}phenyl)-1-(pyridazin-3-yl)azetidine-3-carboxamide]",2.7
6,"O=C(Nc1ccc(C2CCN(C(=O)Cc3ccc(Cl)cc3Cl)CC2)cc1)C1CN(c2cccnn2)C1 [Example 405, N-(4-{1-[(2,4-dichlorophenyl)acetyl]piperidin-4-yl}phenyl)-1-(pyridazin-3-yl)azetidine-3-carboxamide]",6.75
7,"O=C(Nc1ccc(C2CCN(C(=O)c3cccc4ccccc34)CC2)cc1)C1CN(c2cccnn2)C1 [Example 406, N-{4-[1-(naphthalen-1-ylcarbonyl)piperidin-4-yl]phenyl}-1-(pyridazin-3-yl)azetidine-3-carboxamide]",7.42
8,"CO[C@@H](C(=O)N1CCC(c2ccc(NC(=O)C3CN(c4cccnn4)C3)cc2)CC1)c1ccccc1 [Example 407, N-(4-{1-[(2R)-2-methoxy-2-phenylacetyl]piperidin-4-yl}phenyl)-1-(pyridazin-3-yl)azetidine-3-carboxamide]",1.01
9,"O=C(NCC(=O)N1CCC(c2ccc(NC(=O)C3CN(c4cccnn4)C3)cc2)CC1)c1ccco1 [Example 408, N-(4-{1-[N-(furan-2-ylcarbonyl)glycyl]piperidin-4-yl}phenyl)-1-(pyridazin-3-yl)azetidine-3-carboxamide]",29.9
10,"O=C(Nc1ccc(C2CCN(C(=O)COCc3ccccc3)CC2)cc1)C1CN(c2cccnn2)C1 [Example 409, N-(4-{1-[(benzyloxy)acetyl]piperidin-4-yl}phenyl)-1-(pyridazin-3-yl)azetidine-3-carboxamide]",6.72
11,"O=C(Nc1ccc(C2CCN(C(=O)Cc3cccc4ccccc34)CC2)cc1)C1CN(c2cccnn2)C1 [Example 410, N-{4-[1-(naphthalen-1-ylacetyl)piperidin-4-yl]phenyl}-1-(pyridazin-3-yl)azetidine-3-carboxamide]",8.68
12,"O=C(Nc1ccc(C2CCN(C(=O)C3CC3)CC2)cc1)C1CN(c2cccnn2)C1 [Example 411, N-{4-[1-(cyclopropylcarbonyl)piperidin-4-yl]phenyl}-1-(pyridazin-3-yl)azetidine-3-carboxamide]",7.15
13,"O=C(Nc1ccc(C2CCN(C(=O)C3CCCO3)CC2)cc1)C1CN(c2cccnn2)C1 (centres unmarked) [Example 412, 1-(pyridazin-3-yl)-N-{4-[1-(tetrahydrofuran-2-ylcarbonyl)piperidin-4-yl]phenyl}azetidine-3-carboxamide]",1.37
14,"O=C(NCC(=O)N1CCC(c2ccc(NC(=O)C3CN(c4cccnn4)C3)cc2)CC1)c1ccccc1 [Example 413, N-{4-[1-(N-benzoylglycyl)piperidin-4-yl]phenyl}-1-(pyridazin-3-yl)azetidine-3-carboxamide]",10
